# In patent US20130324606A1, “Ester Derivatives of Bimatoprost Compositions and Methods” (ALLERGAN, INC., priority 2011, published 2013):
# Tests used:
# [1] = Formulation and stability studies; type: physicochemical; conditions: variations of Formulation A, 0.03% active, pH 4, 5, 6 and 7; 25, 40 and 60° C.; zero time and 80-days
# Method: Stability over time of compounds disclosed herein was determined in formulation as a function of temperature and pH. Variations of Formulation A described herein were employed wherein the target concentration of active agent was 0.03%, and the pH was varied at pH 4, 5, 6 and 7. Temperatures of 25° C., 40° C. and 60° C. were maintained during the experiment. Samples were evaluated at zero time and 80-days.
# Cmpds IVa, IIIb, and IVb for evaluated for stability.
# FIGS. 1A-1B, 2A-2B, and 3A-3B depict histograms of relative concentrations of test compounds (arbitrary scale) at zero time or 80-days. FIG. 1A depicts a histogram of the stability profile of Cmpd IVa as a function of pH and temperature. FIG. 1B depicts a histogram of the formation of bimatoprost as a function of pH and temperature after 80-days for Cmpd IVa. FIG. 2A depicts a histogram of the stability profile of Cmpd IVb as a function of pH and temperature. FIG. 2B depicts a histogram of the formation of bimatoprost as a function of pH and temperature after 80-days for Cmpd IVb. FIG. 3A depicts a histogram of the stability profile of Cmpd IIIb as a function of pH and temperature. FIG. 3B depicts a histogram of the formation of bimatoprost as a function of pH and temperature after 80-days for Cmpd IIIb.
# [2] = system: reconstructed human epidermis (RHE); assay: In vitro dermal irritation screening in reconstructed human epidermis; type: cell-based; conditions: concentration 0.03%, Formulation A vehicle
# Method: In vitro irritation screening assays were conducted for compounds described herein. Test system was the reconstructed human epidermis (RHE), as known in the art. Single dosing was employed, and endpoints were evaluated as a function of time up to 24-hrs. Endpoints were tissue viability and IL-1α release.
# Test compounds included Cmpds IVa (0.03%), IIIb (0.03%), IVb (0.03%), bimatoprost (0.03%), minoxidil (5%, foam), and minoxidil (5%, solution). Administration of Cmpds IVa, IIIb, IVb and bimatoprost employed the vehicle of Formulation A. See Table 1 above. Administration of minoxidil employed minoxidil vehicle with formulation 20% H2O, 50% propylene glycol, and 30% ethanol.
# [3] = Dermal tolerability in rats; type: in vivo; conditions: female rats; for change in food consumption and body weight gain (in words): 3 mg/kg/day daily for 8 days; for Body Weight Gain (g) Mean ± SD / Food Consumption (g) Mean ± SD: dermal 3 mg/kg/day daily for 8 days, Formulation A
# Method: Female rats were administered either vehicle or one of Cmpds IVa, IIIb, or IVb daily for 8 days. The administered dose was 3 mg/kg/day, at a concentration of 3 mg/mL. Observed data were body weight, viability, food consumption, and dermal observation (skin reaction grading), as known in the art. The vehicle was Formulation A. See Table 1 above.
# [4] = microAmes mutagenesis screen; type: cell-based; conditions: with or without metabolic activation
# From the text: Cmpds IVa, IIIb, and IVb were subjected to the microAmes screen, as known in the art.
# [5] = system: human hair dermal papilla cells, HHDPC; assay: Cellular dielectric spectroscopy (CDS) in dermal papilla cells; type: cell-based
# Method: Cellular dielectric spectroscopy (CDS) was conducted in an assay of dermal papilla cells (i.e., human hair dermal papilla cells, HHDPC) with bimatoprost and Cmpds IVc and IVb. As known in the art, CDS is a real-time, non-invasive, label-free, high-throughput, cell-based assay which measures electrical cell impedance. Without wishing to be bound by any theory, it is believed that GPCR activation induces changes in cell morphology, cell-cell interaction, and cell adherence which manifest as a change in cell impedance.
# [6] = system: C57Black/6J mice; assay: Piliation (hair regrowth) studies in mice; type: in vivo; conditions: for pharmacological efficacy relative to bimatoprost: mouse hair regrowth, vehicle Formulation A
# Method: C57Black/6J, 7-week old female mice (n=10) were employed in piliation studies. Dorsal hair was shaved (area ˜2 cm×4 cm). Dosing of active agent was once per day (QD) by topical administration for 14 days. Observations were conducted for 42-days to determine onset of new hair growth and day of hair growth completion. Compounds were formulated as either a) 50% propylene glycol, 30% ethanol, 20% water, or b) the formulation of Formulation A described above. The experiments reported for FIGS. 4A-4B, 5A-5B, 6A-6B, 8A-8B, and 9A-9B were conducted using a vehicle with formulation of 50% propylene glycol, 30% ethanol, 20% water. The experiments reported for FIGS. 7A-7B were conducted using a vehicle of Formulation A described above.
# For each of FIGS. 4A, 5A, 6A, 7A, 8A and 9A, the histograms depict the day of onset of hair growth. For each of FIGS. 4B, 5B, 6B, 7B, 8B and 9B, the histograms depict the day achieving full hair growth.
# [7] = system: mouse skin; assay: Pathology assessment of mouse hair regrowth model; type: in vivo, mice; conditions: histology, 0.03% active, vehicle control still in growth phase
# From the text: Histological samples from test subjects employed in the studies described in Example 12 were obtained for pathology assessment.
# [8] = Pharmacokinetic assessment of mouse hair regrowth model; type: in vivo; conditions: mice, 0.03% dermal daily ~60 uL, all measured time points, LC/MS-MS
# Method: Female C57BL/6J mice (n=2) were assayed per time point per treatment group. Treatment groups: (1) vehicle; (2) 0.03% Cmpd IVa; (3) 0.03% Cmpd IIIb; (4) 0.03% Cmpd IVb; (5) 0.03% bimatoprost. Treatment dosing: dermal daily application of ˜60 uL test compound solution. Blood and skin pharmacokinetic time points were obtained at day 1 (1, 4, 8 and 24-hrs post-dose); day 2 (24-hrs post-dose); day 14 (24-hrs post-dose); and day 42 (28 days post day 14 dose). Bioanalysis employed LC/MS-MS.
# [9] = In vitro human skin penetration (Franz diffusion chamber); type: in vitro ADME; conditions: for skin penetration (cumulative amount in receptor solution) relative to bimatoprost / penetration flux relative to bimatoprost / Percentage Dose Applied, Receptor Chamber Solution, Prodrug / Percentage Dose Applied, Upper ⅓ Dermis, Prodrug: 0.03% in Formulation A; for skin penetration (cumulative amount in receptor solution) relative to bimatoprost: FIG. 13A; for penetration flux relative to bimatoprost: FIG. 13B; for Percentage Dose Applied, Receptor Chamber Solution, Prodrug: Franz chamber; for Percentage Dose Applied, Receptor Chamber Solution, Prodrug / Percentage Dose Applied, Upper ⅓ Dermis, Prodrug: dosed compound; for Percentage Dose Applied, Upper ⅓ Dermis, Prodrug: dermis at 48 hrs; for conversion to bimatoprost in the SC/Epi/Dermis layers: FIG. 15A; for amount of active agent in the upper third of the dermis relative to bimatoprost: FIG. 15B
# From the text: Test material: Dermatomed ex vivo human cadaver posterior trunk skin on 1.0 cm^2 Franz diffusion chamber as known in the art. Test size: 3 skin donors (obtained from New York Firefighters Skin Bank), 3 replicates per donor per formulation. Test formulations: 0.03% active agent (Cmpd IVa, Cmpd IIIb, Cmpd IVb) in Formulation A; control formulation: bimatoprost at 0.03% in Formulation A. Dosing regimen: receptor fluid at 2, 4, 24, and 48 hrs; SC/epidermis and dermis at 48 hrs. Sample analysis: LC/MS-MS to detect bimatoprost and Cmpds IVa, IIIb and IVb.
# [10] = as above; type: in vitro ADME; conditions: FIGS. 14A-14C, 6, 24, 48 hr
# [11] = Partitioning in artificial sebum; type: physicochemical
# Method: Compounds bimatoprost, Cmpd IVa, and Cmpd IIIb were added to aqueous solution (1 mL, 2-20 ug/mL), with and without 1-20 mg artificial sebum. Samples were shaken for 16 hr at 37° C. Samples were then centrifuged (8000 RPM) for 15 min at room temperature, prior to collection of the aqueous solution. Samples were analyzed for concentration of compound without artificial sebum (i.e., Co) and with artificial sebum (i.e., Ci) by mass spectroscopy. Artificial sebum and water partition coefficient (Ksebum) was expressed as the concentration of drug in 1 g of artificial sebum divided by the concentration of drug in 1 g of aqueous solution, and was calculated as Ksebum=(Co−Ci)Waqueous/(Ci×Wsebum) (Eqn. 1), where W represents weight.
# Artificial sebum was prepared as follows: 15% (w/w) squalene, 15% spermaceti, 10% coconut oil, 1.5% oleic acid, 5% palmitic acid, 2.4% cholesterol oleate, 10% paraffin wax, 10% olive oil, 25% cottonseed oil, 5% palmitoleic acid, 1.2% cholesterol. The melting point of the semi-liquid was 37° C.
SMILES,stability in formulation [1],potential for irritation of the human skin [2],change in food consumption and body weight gain (in words) [3],Body Weight Gain (g) Mean ± SD [3] [g],Food Consumption (g) Mean ± SD [3] [g],mutagenicity in microAmes screen [4],pharmacological efficacy relative to bimatoprost [6],hair cycle phase at day-42 [7],level in the systemic circulation [8],skin penetration (cumulative amount in receptor solution) relative to bimatoprost [9],penetration flux relative to bimatoprost [9],"Percentage Dose Applied, Receptor Chamber Solution, Prodrug [9] [Percentage Dose Applied]","Percentage Dose Applied, Upper ⅓ Dermis, Prodrug [9] [Percentage Dose Applied]",conversion to bimatoprost in the SC/Epi/Dermis layers [9],amount of active agent in the upper third of the dermis relative to bimatoprost [9],conversion to bimatoprost in the receptor chamber solution [10],further results
"CCNC(=O)CCC/C=C\C[C@@H]1[C@@H](/C=C/[C@H](CCc2ccccc2)OC(=O)CC)[C@H](O)C[C@@H]1O [Cmpd IVb, 15-propionyl-bimatoprost]",stable in formulation,no indication of potential for irritation,decreases in both food consumption and body weight gain,0.3 ± 6.7,19.19 ± 1.32,not mutagenic,approximately equivalent efficacy,returned to the resting phase,most undetectable,significantly greater than for bimatoprost,greater than that for bimatoprost,2.1,1.9,converted to bimatoprost,less than observed for bimatoprost,observed to convert to bimatoprost,"change in cell impedance [5]: not observed to provide a change in cell impedance; EC50 ([5]; cell impedance, tested range 10^−4 to 10^−13 mol/L): could not be determined; days for hair growth to commence (day of onset of hair growth) ([6]; 0.03%, topical QD 14 days, vehicle 50% propylene glycol, 30% ethanol, 20% water, FIG. 6A): 16 days; days for full hair growth to be achieved ([6]; 0.03%, topical QD 14 days, vehicle 50% propylene glycol, 30% ethanol, 20% water, FIG. 6B): 32 days; activity in the time required to regain full hair growth (ranking) ([6]; among compounds tested at 0.03%): best activity"
"CCNC(=O)CCC/C=C\C[C@@H]1[C@@H](/C=C/[C@@H](O)CCc2ccccc2)[C@H](OC(=O)CC)C[C@@H]1O [Cmpd IIIb, 11-propionyl bimatoprost]",stable in formulation,no indication of potential for irritation,no significant change in food consumption or body weight gain,10.0 ± 6.1,22.8 ± 1.36,not mutagenic,approximately equivalent efficacy,returned to the resting phase,most undetectable,significantly greater than for bimatoprost,greater than that for bimatoprost,0.8,2.1,converted to bimatoprost,less than observed for bimatoprost,observed to convert to bimatoprost,"dermal observation: signs of irritation ([3]; 3 mg/kg/day, days 2-4): minimal and transient signs of irritation; phase in which the majority of compound remains ([11]; artificial sebum / aqueous solution): remain in the aqueous phase; Ave. Ksebum (artificial sebum and water partition coefficient) ([11]; n = 4, 16 hr at 37° C.): 6.1"
